Measured values: patent publication US4634704A, “Anti-allergic five membered heterocyclic ring containing N-(bicyclic heterocycyl)-4-piperidinamines” (Janssen Pharmaceutica, N.V., priority 1984, dated 1987)
Where a name gives a salt, the structure may show the parent alone.

What follows are compounds tested on effects of serotonin in the gastric lesion test (assay: Antagonistic activity on the effects of serotonin in the gastric lesion test (lesions induced by compound 48/80)). Details: Rattus norvegicus, read-out: gastric lesion test ED50.
Format: in vivo, rat (male, Wistar inbred strain)
Description: The compounds of formula (I) and the pharmaceutically acceptable acid addition salts thereof are also potent serotonin-antagonists. The potency of the subject compounds as serotonin-antagonists is clearly evidenced by the results obtained in the following tests wherein the antagonistic activity of the subject compounds on the effect of serotonin is examined.
Antagonistic activity on the effects of serotonin in the gastric lesion test.
The shock, followed by dead, can be avoided if the rats are pretreated with a classical H 1 antagonist.
Male rats of a Wistar inbred strain, weighing 220-250 g, were starved overnight, water being available ad libitum. The test compounds were administered orally as a solution or as a suspension in aqueous medium. A control rat and a "blank" rat received the test compound. One hour later 5-[4-(diphenylmethyl)-1-piperazinylmethyl]-1-methyl-1H-benzimidazole-2-methanol was administered subcutaneously to all rats at the dose of 2.5 mg/kg.
Four hours after the intravenous injection of compound 48/80, the rats were decapitated and the stomachs were removed. Subsequently the stomachs were inspected for distension and contents (blood, fluid, food) and thoroughly rinsed. The macroscopic lesions were scored from 0 to +++, 0 corresponding to the complete absence of visible lesions and the highest score corresponding to reddish rough patches covering more than half the glandular area.

SMILES	ED50
Cn1ccnc1SCCN1CCC(Nc2nc3ccccc3n2Cc2ccc(F)cc2)CC1 [Compound 75, 1-[(4-fluorophenyl)methyl]-N-[1-[2-[(1-methyl-1H-imidazol-2-yl)thio]ethyl]-4-piperidinyl]-1H-benzimidazol-2-amine]	0.08 mg/kg

Same assay, conditions: Rattus norvegicus; read-out: gastric lesion test ED50

SMILES	ED50
O=C(c1ccccc1)N(CCN1CCC(Nc2nc3ccccc3n2Cc2ccc(F)cc2)CC1)c1nccs1 [Compound 100, N-[2-[4-[[1-[(4-fluorophenyl)methyl]-1H-benzimidazol-2-yl]amino]-1-piperidinyl]ethyl]-N-(2-thiazolyl)benzamide]	0.63 mg/kg
Fc1ccccc1Cn1c(NC2CCN(CCNc3nccs3)CC2)nc2ccccc21 [Compound 31]	0.63 mg/kg
CNC(=O)N(CCN1CCC(Nc2nc3ccccc3n2Cc2ccc(F)cc2)CC1)c1nccs1 [Compound 103, N-[2-[4-[[1-[(4-fluorophenyl)methyl]-1H-benzimidazol-2-yl]amino]-1-piperidinyl]ethyl]-N'-methyl-N-(2-thiazolyl)urea]	0.63 mg/kg
CC(C)n1ccnc1NCCN1CCC(Nc2nc3ccccc3n2Cc2ccc(F)cc2)CC1.O [Compound 81, 1-[(4-fluorophenyl)methyl]-N-[1-[2-[[1-(1-methylethyl)-1H-imidazol-2-yl]amino]-ethyl]-4-piperidinyl]-1H-benzimidazol-2-amine mono hydrate]	0.31 mg/kg

Each compound was assayed on compound 48/80-induced lethality (assay: Protection of rats from compound 48/80-induced lethality). Details: Rattus norvegicus, 4 h, read-out: compound 48/80 lethality test in rats-ED50, dose protecting 50% of animals; subcutaneous or oral, 1 h before compound 48/80 0.5 mg/kg i.v.; survival after 4 h.
Format: in vivo, rat (male, inbred Wistar strain)
Protocol: Protection of rats from compound 48/80-induced lethality.
The protection from compound 48/80-induced lethal circulatory collapse appears to be a simple way of evaluating quantitatively the antihistaminic activity of test compounds. Male rats of an inbred Wistar strain, weighing 240-260 g were used in the experiment. After overnight starvation the rats were transferred to conditioned laboratories (temp.=21±1° C., relative humidity=65±5%).
The rats were treated subcutaneously or orally with a test compound or with the solvent (NaCl solution, 0.9%). […] Survival after 4 hours is therefore considered to be a safe criterion of a protective effect of drug administration.
The ED50 -values of the compounds of formula (I) are listed in the first column of table 1. Said ED50 -values are the values in mg/kg body weight at which the tested compounds protect 50% of the tested animals against compound 48/80-induced lethality.

SMILES	ED50
Fc1ccc(Cn2c(NC3CCN(CCNc4nccn4-c4ncccn4)CC3)nc3ccccc32)cc1 [Compound 105]	0.16 mg/kg
Fc1ccc(Cn2c(NC3CCN(Cc4nc5ccccc5[nH]4)CC3)nc3ccccc32)cc1.O [Compound 2, N-[1-(1H-benzimidazol-2-ylmethyl)-4-piperidinyl]-1-(4fluorophenylmethyl)-1H-benzimidazol-2-amine monohydrate]	0.63 mg/kg
Fc1ccc(Cn2c(NC3CCN(CCCNc4nccs4)CC3)nc3ccccc32)cc1 [Compound 20]	0.16 mg/kg
O=C(c1ccccc1)N(CCN1CCC(Nc2nc3ccccc3n2Cc2ccc(F)cc2)CC1)c1nccs1 [Compound 100, N-[2-[4-[[1-[(4-fluorophenyl)methyl]-1H-benzimidazol-2-yl]amino]-1-piperidinyl]ethyl]-N-(2-thiazolyl)benzamide]	0.31 mg/kg
Fc1ccccc1Cn1c(NC2CCN(CCNc3nccs3)CC2)nc2ccccc21 [Compound 31]	0.08 mg/kg
COc1ccc(Cn2c(NC3CCN(CCNc4nccs4)CC3)nc3ccccc32)cc1 [Compound 24]	0.31 mg/kg
CN(CCN1CCC(Nc2nc3ccccc3n2Cc2ccc(F)cc2)CC1)c1nccs1 [Compound 50, 1-[(4-fluorophenyl)methyl]-N-[1-[2-[methyl(2-thiazolyl)amino]ethyl]-4-piperidinyl]-1H-benzimidazol-2-amine]	0.08 mg/kg
Fc1ccc(Cn2c(NC3CCN(CCOc4nc5ccccc5s4)CC3)nc3ccccc32)cc1 [Compound 67, N-[1-[2-(2-benzothiazolyloxy)ethyl]-4-piperidinyl]-1-[(4-fluorophenyl)methyl]-1H-benzimidazol-2-amine]	0.63 mg/kg
CNC(=O)N(CCN1CCC(Nc2nc3ccccc3n2Cc2ccc(F)cc2)CC1)c1nccs1 [Compound 103, N-[2-[4-[[1-[(4-fluorophenyl)methyl]-1H-benzimidazol-2-yl]amino]-1-piperidinyl]ethyl]-N'-methyl-N-(2-thiazolyl)urea]	0.08 mg/kg
CC(C)n1ccnc1NCCN1CCC(Nc2nc3ccccc3n2Cc2ccc(F)cc2)CC1.O [Compound 81, 1-[(4-fluorophenyl)methyl]-N-[1-[2-[[1-(1-methylethyl)-1H-imidazol-2-yl]amino]-ethyl]-4-piperidinyl]-1H-benzimidazol-2-amine mono hydrate]	0.04 mg/kg
CCn1nnnc1OCCN1CCC(Nc2nc3ccccc3n2Cc2ccc(F)cc2)CC1 [Compound 10, N-[1-[2-[(1-ethyl-1H-tetrazol-5-yl)oxy]ethyl]-4-piperidinyl]-1-[(4-fluorophenyl)methyl]-1H-benzimidazol-2-amine (E)-2-butenedioate (2:5)]	0.04 mg/kg
Cn1ccnc1SCCN1CCC(Nc2nc3ccccc3n2Cc2ccc(F)cc2)CC1 [Compound 75, 1-[(4-fluorophenyl)methyl]-N-[1-[2-[(1-methyl-1H-imidazol-2-yl)thio]ethyl]-4-piperidinyl]-1H-benzimidazol-2-amine]	0.08 mg/kg
Fc1ccc(Cn2ccnc2NCCN2CCC(Nc3nc4ccccc4n3Cc3ccc(F)cc3)CC2)cc1 [Compound 82, 1-[(4-fluorophenyl)methyl]-N-[1-[2-[[1-[(4-fluorophenyl)methyl]-1H-imidazol-2-yl]amino]ethyl]-4-piperidinyl]-1H-benzimidazol-2-amine cyclohexanesulfamate(1:3).dihydrate]	0.16 mg/kg
Fc1ccc(Cn2c(NC3CCN(CCSc4nc5ccccc5o4)CC3)nc3ccccc32)cc1 [Compound 73, N-[1-[2-[(2-benzoxazolyl)thio]ethyl]-4-piperidinyl]-1-[(4-fluorophenyl)methyl]-1H-benzimidazol-2-amine]	0.63 mg/kg
Fc1ccc(Cn2c(NC3CCN(CCNc4nccs4)CC3)nc3ccncc32)cc1 [Compound 23]	0.08 mg/kg
CC(c1ccc(Cl)cc1)n1ccnc1NCCN1CCC(Nc2nc3ccccc3n2Cc2ccc(F)cc2)CC1 (stereo not drawn) [Compound 106, N-[1-[2-[[1-[1-(4-chlorophenyl)ethyl]-1H-imidazol-2-yl]amino]ethyl]-4-piperidinyl]-1-[(4-fluorophenyl)methyl]-1H-benzimidazol-2-amine cyclohexanesulfamate(1:3).dihydrate]	0.63 mg/kg
CCn1nnnc1SCCN1CCC(Nc2nc3ccccc3n2Cc2ccc(F)cc2)CC1 [Compound 74, N-[1-[2-[(1-ethyl-1H-tetrazol-5-yl)thio]ethyl]-4-piperidinyl]-1-[(4-fluorophenyl)methyl]-1H-benzimidazol-2-amine]	0.08 mg/kg
Nc1nc(CCN2CCC(Nc3nc4ccccc4n3Cc3ccc(F)cc3)CC2)cs1 [Compound 91, N-[1-[2-(2-amino-4-thiazolyl)ethyl]-4-piperidinyl]-1-[(4-fluorophenyl)methyl]-1H-benzimidazol-2-amine]	0.08 mg/kg

SMILES	ED50
CCc1nnc(NCCN2CCC(Nc3nc4ccccc4n3Cc3ccc(F)cc3)CC2)s1 [Compound 33]	0.16 mg/kg
c1ccc(Cn2c(NC3CCN(CCNc4nccs4)CC3)nc3ccccc32)nc1 [Compound 27]	0.04 mg/kg
Fc1ccc(Cn2c(NC3CCN(CCCCNc4nccs4)CC3)nc3ccccc32)cc1 [Compound 53]	0.31 mg/kg
O=[N+]([O-])c1cnc(NCCN2CCC(Nc3nc4ccccc4n3Cc3ccc(F)cc3)CC2)s1 [Compound 32]	0.63 mg/kg
CNC(=S)N(CCN1CCC(Nc2nc3ccccc3n2Cc2ccc(F)cc2)CC1)c1nccs1 [Compound 104, N-[2-[4-[[1-[(4-fluorophenyl)methyl]-1H-benzimidazol-2-yl]amino]-1-piperidinyl]ethyl]-N'-methyl-N-(2-thiazolyl)thiourea]	0.16 mg/kg
O=C(NCCN1CCC(Nc2nc3ccccc3n2Cc2ccc(F)cc2)CC1)c1cc2ccccc2[nH]1 [Compound 76, N-[2-[4-[[1-[(4-fluorophenyl)methyl]-1H-benzimidazol-2-yl]amino]-1-piperidinyl]ethyl]-1H-indole-2-carboxamide]	0.16 mg/kg
CCOC(=O)N(CCN1CCC(Nc2nc3ccccc3n2Cc2ccc(F)cc2)CC1)c1nccs1 [Compound 101, ethyl[2-[4-[[1-[(4-fluorophenyl)methyl]-1H-benzimidazol-2-yl]amino]-1-piperidinyl]ethyl](2-thiazolyl)carbamate]	0.31 mg/kg
O=[N+]([O-])c1ccc(Cn2c(NC3CCN(CCNc4nccs4)CC3)nc3ccccc32)cc1 [Compound 43]	0.31 mg/kg
Cn1c(C(=O)NCCN2CCC(Nc3nc4ccccc4n3Cc3ccc(F)cc3)CC2)cc2ccccc21 [Compound 78, N-[2-[4-[[1-[(4-fluorophenyl)methyl]-1H-benzimidazol-2-yl]amino]-1piperidinyl]ethyl]-1-methyl-1H-indole-2-carboxamide]	0.16 mg/kg
Nc1ccc(Cn2c(NC3CCN(CCNc4nccs4)CC3)nc3ccccc32)cc1 [Compound 35]	0.31 mg/kg
Fc1ccc(Cn2c(NC3CCN(CCNc4nc5ccccc5s4)CC3)nc3ccccc32)cc1 [Compound 19]	0.31 mg/kg
CN(c1nc2ccccc2n1Cc1ccc(F)cc1)C1CCN(CCNc2nccs2)CC1 [Compound 26]	0.02 mg/kg
O=C(Cc1c[nH]c2ccccc12)NCCN1CCC(Nc2nc3ccccc3n2Cc2ccc(F)cc2)CC1 [Compound 77, N-[2-[4-[[1-[(4-fluorophenyl)methyl]-1H-benzimidazol-2-yl]amino]-1-piperidinyl]ethyl]-1H-indol-3-acetamide]	0.16 mg/kg
Fc1ccc(Cn2c(NC3CCN(CCc4csc(-c5ccccc5)n4)CC3)nc3ccccc32)cc1 [Compound 92, 1-[(4-fluorophenyl)methyl]-N-[1-[2-(2-phenyl-4-thiazolylethyl]-4-piperidinyl]-1H-benzimidazol-2-aminedihydrochloride monohydrate]	0.63 mg/kg
c1ccc(Cn2c(NC3CCN(CCNc4nccs4)CC3)nc3cccnc32)nc1 [Compound 57]	0.005 mg/kg
N=C(NCCN1CCC(Nc2nc3ccccc3n2Cc2ccc(F)cc2)CC1)Nc1nc2ccccc2[nH]1 [Compound 66, N-(1H-benzimidazol-2-yl)-N'-[2-[4-[[1-[(4-fluorophenyl)methyl]-1H-benzimidazol-2-yl]amino]-1-piperidinyl]ethyl]guanidine trihydrochloride.dihydrate]	0.31 mg/kg
c1coc(Cn2c(NC3CCN(CCNc4nccs4)CC3)nc3cccnc32)c1 [Compound 56]	0.01 mg/kg
Cn1cnc([N+](=O)[O-])c1NCCN1CCC(Nc2nc3ccccc3n2Cc2ccc(F)cc2)CC1 [Compound 12]	0.31 mg/kg

Same assay, conditions: dose protecting 50% of animals; subcutaneous or oral, 1 h before compound 48/80 0.5 mg/kg i.v.; survival after 4 h; 0.5 mg/kg, 240 min

SMILES	compound 48/80 lethality test in rats-ED50
Fc1ccc(Cn2c(NC3CCN(CCNc4nccs4)CC3)nc3ccccc32)cc1 [Compound 16]	0.08 mg/kg body weight
